Test results taken from US9580444B2, “Polycyclic pyrazolinone derivative and herbicide comprising same as effective component thereof” (priority 2013, dated 2017).

system: Cyperus difformis (smallflower umbrella plant); assay: Test Example-1: herbicidal effect by a treatment before weeds are generated under submerged conditions; assay type: in vivo; settings: 500 g a.i/ha, pre-emergence treatment, about 15 days after treatment, score 0-5
How it was run: (§1)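 Paddy soil in cups was puddled, seeded with the weeds and kept flooded; compound as wettable powder or emulsifiable concentrate was diluted and applied into the water on the seeding day at a set dosage. Effect was scored about 15 days later on a 0–5 scale.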

Compound | Herbicidal effect Cyperus difformis
O=c1c(-c2cc(OCC=Cc3ccc(F)cc3)c(Cl)cc2F)c(Cl)n2n1CCCC2 [Example 1-226] | 5 (Herbicidal effect/phytotoxicity was 90% or greater)
C=CCCOc1cc(-c2c(Cl)n3n(c2=O)CCCC3)c(F)cc1Cl [Example 1-222] | 5 (Herbicidal effect/phytotoxicity was 90% or greater)
C#CC(C)Oc1cc(-c2c(Cl)n3n(c2=O)CCCC3)c(F)cc1F (centres unmarked) [Example 1-114] | 5 (Herbicidal effect/phytotoxicity was 90% or greater)
C=CCOc1cc(-c2c(Cl)n3n(c2=O)CCCC3)c(F)cc1Cl [Example 1-201] | 5 (Herbicidal effect/phytotoxicity was 90% or greater)
COc1cc(-c2c(Cl)n3n(c2=O)CCCC3)c(F)cc1F [Example 1-87] | 5 (Herbicidal effect/phytotoxicity was 90% or greater)

system: Echinochloa oryzicola (barnyard grass); assay: as above; assay type: in vivo; settings: 500 g a.i/ha, pre-emergence treatment, about 15 days after treatment, score 0-5
How it was run: as §1

Compound | Herbicidal effect Echinochloa oryzicola
O=c1c(-c2cc(OCC=Cc3ccc(F)cc3)c(Cl)cc2F)c(Cl)n2n1CCCC2 [Example 1-226] | 5 (Herbicidal effect/phytotoxicity was 90% or greater)
C=CCCOc1cc(-c2c(Cl)n3n(c2=O)CCCC3)c(F)cc1Cl [Example 1-222] | 5 (Herbicidal effect/phytotoxicity was 90% or greater)
C#CC(C)Oc1cc(-c2c(Cl)n3n(c2=O)CCCC3)c(F)cc1F (centres unmarked) [Example 1-114] | 5 (Herbicidal effect/phytotoxicity was 90% or greater)
C=CCOc1cc(-c2c(Cl)n3n(c2=O)CCCC3)c(F)cc1Cl [Example 1-201] | 5 (Herbicidal effect/phytotoxicity was 90% or greater)
COc1cc(-c2c(Cl)n3n(c2=O)CCCC3)c(F)cc1F [Example 1-87] | 5 (Herbicidal effect/phytotoxicity was 90% or greater)

system: Eleocharis acicularis (needle spikerush); assay: as above; assay type: in vivo; settings: 500 g a.i/ha, pre-emergence treatment, about 15 days after treatment, score 0-5
How it was run: as §1

Compound | Herbicidal effect Eleocharis acicularis
O=c1c(-c2cc(OCC=Cc3ccc(F)cc3)c(Cl)cc2F)c(Cl)n2n1CCCC2 [Example 1-226] | 5 (Herbicidal effect/phytotoxicity was 90% or greater)
C=CCCOc1cc(-c2c(Cl)n3n(c2=O)CCCC3)c(F)cc1Cl [Example 1-222] | 5 (Herbicidal effect/phytotoxicity was 90% or greater)
C#CC(C)Oc1cc(-c2c(Cl)n3n(c2=O)CCCC3)c(F)cc1F (centres unmarked) [Example 1-114] | 5 (Herbicidal effect/phytotoxicity was 90% or greater)
C=CCOc1cc(-c2c(Cl)n3n(c2=O)CCCC3)c(F)cc1Cl [Example 1-201] | 5 (Herbicidal effect/phytotoxicity was 90% or greater)
COc1cc(-c2c(Cl)n3n(c2=O)CCCC3)c(F)cc1F [Example 1-87] | 5 (Herbicidal effect/phytotoxicity was 90% or greater)

system: Monochoria vaginalis (monochoria); assay: as above; assay type: in vivo; settings: 500 g a.i/ha, pre-emergence treatment, about 15 days after treatment, score 0-5
How it was run: as §1

Compound | Herbicidal effect Monochoria vaginalis
O=c1c(-c2cc(OCC=Cc3ccc(F)cc3)c(Cl)cc2F)c(Cl)n2n1CCCC2 [Example 1-226] | 5 (Herbicidal effect/phytotoxicity was 90% or greater)
C=CCCOc1cc(-c2c(Cl)n3n(c2=O)CCCC3)c(F)cc1Cl [Example 1-222] | 5 (Herbicidal effect/phytotoxicity was 90% or greater)
C#CC(C)Oc1cc(-c2c(Cl)n3n(c2=O)CCCC3)c(F)cc1F (centres unmarked) [Example 1-114] | 5 (Herbicidal effect/phytotoxicity was 90% or greater)
C=CCOc1cc(-c2c(Cl)n3n(c2=O)CCCC3)c(F)cc1Cl [Example 1-201] | 5 (Herbicidal effect/phytotoxicity was 90% or greater)
COc1cc(-c2c(Cl)n3n(c2=O)CCCC3)c(F)cc1F [Example 1-87] | 5 (Herbicidal effect/phytotoxicity was 90% or greater)

system: Scirpus juncoides (bulrush); assay: as above; assay type: in vivo; settings: 500 g a.i/ha, pre-emergence treatment, about 15 days after treatment, score 0-5
How it was run: as §1

Compound | Herbicidal effect Scirpus juncoides
O=c1c(-c2cc(OCC=Cc3ccc(F)cc3)c(Cl)cc2F)c(Cl)n2n1CCCC2 [Example 1-226] | 5 (Herbicidal effect/phytotoxicity was 90% or greater)
C=CCCOc1cc(-c2c(Cl)n3n(c2=O)CCCC3)c(F)cc1Cl [Example 1-222] | 5 (Herbicidal effect/phytotoxicity was 90% or greater)
C#CC(C)Oc1cc(-c2c(Cl)n3n(c2=O)CCCC3)c(F)cc1F (centres unmarked) [Example 1-114] | 5 (Herbicidal effect/phytotoxicity was 90% or greater)
C=CCOc1cc(-c2c(Cl)n3n(c2=O)CCCC3)c(F)cc1Cl [Example 1-201] | 5 (Herbicidal effect/phytotoxicity was 90% or greater)
COc1cc(-c2c(Cl)n3n(c2=O)CCCC3)c(F)cc1F [Example 1-87] | 5 (Herbicidal effect/phytotoxicity was 90% or greater)

system: other annual broad leaf weeds (Lindernia procumbens, Rotala indica, Elatine triandra); assay: as above; assay type: in vivo; settings: 500 g a.i/ha, pre-emergence treatment, about 15 days after treatment, score 0-5
How it was run: as §1

Compound | Herbicidal effect Broadleaf weed
O=c1c(-c2cc(OCC=Cc3ccc(F)cc3)c(Cl)cc2F)c(Cl)n2n1CCCC2 [Example 1-226] | 5 (Herbicidal effect/phytotoxicity was 90% or greater)
C=CCCOc1cc(-c2c(Cl)n3n(c2=O)CCCC3)c(F)cc1Cl [Example 1-222] | 5 (Herbicidal effect/phytotoxicity was 90% or greater)
C#CC(C)Oc1cc(-c2c(Cl)n3n(c2=O)CCCC3)c(F)cc1F (centres unmarked) [Example 1-114] | 5 (Herbicidal effect/phytotoxicity was 90% or greater)
C=CCOc1cc(-c2c(Cl)n3n(c2=O)CCCC3)c(F)cc1Cl [Example 1-201] | 5 (Herbicidal effect/phytotoxicity was 90% or greater)
COc1cc(-c2c(Cl)n3n(c2=O)CCCC3)c(F)cc1F [Example 1-87] | 5 (Herbicidal effect/phytotoxicity was 90% or greater)

system: Abutilon theophrasti (velvetleaf); assay: Test Example-4: herbicidal effect by a foliage treatment after weeds are generated under upland field conditions; assay type: in vivo; settings: 500 g a.i/ha, foliage treatment after emergence, about 14 days after treatment, score 0-5
How it was run: (§2)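 Weed seeds were sown in upland soil, covered with about 0.5 cm soil and grown 14 days with watering. Diluted wettable powder or emulsifiable concentrate was then sprayed uniformly on foliage at a set dosage in 4000 L water/ha. Weed control and corn injury were scored 0–5 about 14 days later.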

Compound | Herbicidal effect Abutilon theophrast
O=c1c(-c2cc(OCC=Cc3ccc(F)cc3)c(Cl)cc2F)c(Cl)n2n1CCCC2 [Example 1-226] | 5 (Herbicidal effect/phytotoxicity was 90% or greater)
C=CCCOc1cc(-c2c(Cl)n3n(c2=O)CCCC3)c(F)cc1Cl [Example 1-222] | 5 (Herbicidal effect/phytotoxicity was 90% or greater)
C#CC(C)Oc1cc(-c2c(Cl)n3n(c2=O)CCCC3)c(F)cc1F (centres unmarked) [Example 1-114] | 5 (Herbicidal effect/phytotoxicity was 90% or greater)
C=CCOc1cc(-c2c(Cl)n3n(c2=O)CCCC3)c(F)cc1Cl [Example 1-201] | 5 (Herbicidal effect/phytotoxicity was 90% or greater)
COc1cc(-c2c(Cl)n3n(c2=O)CCCC3)c(F)cc1F [Example 1-87] | 5 (Herbicidal effect/phytotoxicity was 90% or greater)

system: Amaranthus viridis (green amaranthus); assay: as above; assay type: in vivo; settings: 500 g a.i/ha, foliage treatment after emergence, about 14 days after treatment, score 0-5
How it was run: as §2

Compound | Herbicidal effect Amaranthus viridis
O=c1c(-c2cc(OCC=Cc3ccc(F)cc3)c(Cl)cc2F)c(Cl)n2n1CCCC2 [Example 1-226] | 5 (Herbicidal effect/phytotoxicity was 90% or greater)
C=CCCOc1cc(-c2c(Cl)n3n(c2=O)CCCC3)c(F)cc1Cl [Example 1-222] | 5 (Herbicidal effect/phytotoxicity was 90% or greater)
C#CC(C)Oc1cc(-c2c(Cl)n3n(c2=O)CCCC3)c(F)cc1F (centres unmarked) [Example 1-114] | 5 (Herbicidal effect/phytotoxicity was 90% or greater)
C=CCOc1cc(-c2c(Cl)n3n(c2=O)CCCC3)c(F)cc1Cl [Example 1-201] | 5 (Herbicidal effect/phytotoxicity was 90% or greater)
COc1cc(-c2c(Cl)n3n(c2=O)CCCC3)c(F)cc1F [Example 1-87] | 5 (Herbicidal effect/phytotoxicity was 90% or greater)

system: Chenopodium album (common lambsquarters); assay: as above; assay type: in vivo; settings: 500 g a.i/ha, foliage treatment after emergence, about 14 days after treatment, score 0-5
How it was run: as §2

Compound | Herbicidal effect Chenopodium album
O=c1c(-c2cc(OCC=Cc3ccc(F)cc3)c(Cl)cc2F)c(Cl)n2n1CCCC2 [Example 1-226] | 5 (Herbicidal effect/phytotoxicity was 90% or greater)
C=CCCOc1cc(-c2c(Cl)n3n(c2=O)CCCC3)c(F)cc1Cl [Example 1-222] | 5 (Herbicidal effect/phytotoxicity was 90% or greater)
C#CC(C)Oc1cc(-c2c(Cl)n3n(c2=O)CCCC3)c(F)cc1F (centres unmarked) [Example 1-114] | 5 (Herbicidal effect/phytotoxicity was 90% or greater)
C=CCOc1cc(-c2c(Cl)n3n(c2=O)CCCC3)c(F)cc1Cl [Example 1-201] | 5 (Herbicidal effect/phytotoxicity was 90% or greater)
COc1cc(-c2c(Cl)n3n(c2=O)CCCC3)c(F)cc1F [Example 1-87] | 5 (Herbicidal effect/phytotoxicity was 90% or greater)

system: corn; assay: Test Example-4: phytotoxicity by a foliage treatment after weeds are generated under upland field conditions; assay type: in vivo; settings: 500 g a.i/ha, foliage treatment after emergence, about 14 days after treatment, score 0-5
How it was run: as §2

Compound | Phytotoxicity Corn
O=c1c(-c2cc(OCC=Cc3ccc(F)cc3)c(Cl)cc2F)c(Cl)n2n1CCCC2 [Example 1-226] | 3 (Herbicidal effect/phytotoxicity was 50% to 70%)
C=CCCOc1cc(-c2c(Cl)n3n(c2=O)CCCC3)c(F)cc1Cl [Example 1-222] | 2 (Herbicidal effect/phytotoxicity was 30% to 50%)
C#CC(C)Oc1cc(-c2c(Cl)n3n(c2=O)CCCC3)c(F)cc1F (centres unmarked) [Example 1-114] | 3 (Herbicidal effect/phytotoxicity was 50% to 70%)
C=CCOc1cc(-c2c(Cl)n3n(c2=O)CCCC3)c(F)cc1Cl [Example 1-201] | 2 (Herbicidal effect/phytotoxicity was 30% to 50%)
COc1cc(-c2c(Cl)n3n(c2=O)CCCC3)c(F)cc1F [Example 1-87] | 2 (Herbicidal effect/phytotoxicity was 30% to 50%)
